Assay [1] concerns phospho AKT (ser473) in Jeko cells. The experiment in a line: Detection of phospho AKT (ser473) in Jeko cells. It is filed as cell-based. Conditions: Homo sapiens; Test (e); anti-IgM stimulated; approximate value; read-out: IC50 versus cellular phospho AKT (ser473) in Jeko cells. Here is the method: (e) Protocol for Detection of Phospho AKT (ser473) in Jeko Cells
Compounds at ×10 final concentration in 10 μl of 1% (v/v) DMSO are added to the wells of a Greiner V-bottomed 96 well plate. Compounds are dosed in a 10-point concentration range from 1 μM top dose, 8 compounds are dosed on one plate. There are 8 DMSO positive control wells per plate which have been dosed with vehicle and anti-IgM, and 8 negative control wells which have been dosed with vehicle and assay buffer. Final vehicle concentration is 0.1% DMSO. A reference PI3Kδ selective compound is included in each run. Jeko B cells (human mantle cell lymphoma, ATCC CRL-3006) are seeded into the Greiner 96 well V-bottomed plates containing compounds. Cells are seeded at 100,000 cell/well in 70 μl of RPMI containing 1% glutamine.
Cell plates are incubated for 1 hour in a 37° C. incubator. After this compound pre-incubation time, anti-IgM (F(ab′)2 fragment goat anti-human IgM, Stratech 109-006-129) is added to the plates at ×5 final concentration in 20 μl of assay buffer (RPMI containing 1% glutamine). Final anti-IgM concentration is 0.06 μg/ml or an equivalent EC90 dose. Plates are incubated at 37° C. for 10 min, subsequently plates are immediately placed on ice and centrifuged at […] for 4 min. On ice, supernatants are carefully removed with a manual pipette and 40 μl lysis buffer added. […]

For assay [2], the target named is PI3Kβ (Homo sapiens, UniProt P42338). The experiment in a line: In vitro enzyme inhibition assay (Kinase Glo), PI3Kβ. Conditions: Test (a). It counts as biochemical. The method, then: (§1) (a) In Vitro Enzyme Inhibition Assay
Chain of PI3Kβ (P42338 whole entry): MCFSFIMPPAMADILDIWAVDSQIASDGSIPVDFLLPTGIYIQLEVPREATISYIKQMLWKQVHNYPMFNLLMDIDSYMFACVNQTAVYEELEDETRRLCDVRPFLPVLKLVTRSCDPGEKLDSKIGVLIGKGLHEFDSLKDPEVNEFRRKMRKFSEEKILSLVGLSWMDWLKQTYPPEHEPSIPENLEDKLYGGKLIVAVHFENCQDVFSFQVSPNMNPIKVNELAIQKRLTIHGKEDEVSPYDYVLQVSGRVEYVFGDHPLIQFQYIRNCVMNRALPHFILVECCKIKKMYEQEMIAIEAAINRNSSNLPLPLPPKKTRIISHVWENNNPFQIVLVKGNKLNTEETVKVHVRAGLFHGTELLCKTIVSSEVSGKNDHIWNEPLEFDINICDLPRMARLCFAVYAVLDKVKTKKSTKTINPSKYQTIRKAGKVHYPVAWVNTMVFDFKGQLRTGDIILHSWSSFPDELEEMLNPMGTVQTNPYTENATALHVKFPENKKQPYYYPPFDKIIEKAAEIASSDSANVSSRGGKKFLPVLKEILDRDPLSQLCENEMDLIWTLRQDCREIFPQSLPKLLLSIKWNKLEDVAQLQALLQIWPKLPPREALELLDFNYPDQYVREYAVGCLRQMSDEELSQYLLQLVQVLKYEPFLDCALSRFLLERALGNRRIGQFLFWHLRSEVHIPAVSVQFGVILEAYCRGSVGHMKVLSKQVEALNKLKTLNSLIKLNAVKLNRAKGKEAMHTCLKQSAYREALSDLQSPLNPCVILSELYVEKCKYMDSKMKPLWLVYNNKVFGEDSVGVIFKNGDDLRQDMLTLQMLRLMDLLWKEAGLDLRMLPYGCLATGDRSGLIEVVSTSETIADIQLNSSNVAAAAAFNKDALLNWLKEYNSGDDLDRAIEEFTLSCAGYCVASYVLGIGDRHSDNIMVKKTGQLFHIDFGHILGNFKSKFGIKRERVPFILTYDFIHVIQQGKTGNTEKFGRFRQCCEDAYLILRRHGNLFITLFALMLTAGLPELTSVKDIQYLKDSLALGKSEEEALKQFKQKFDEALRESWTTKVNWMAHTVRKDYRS
Chain of PI3Kβ (P27986 whole entry partner): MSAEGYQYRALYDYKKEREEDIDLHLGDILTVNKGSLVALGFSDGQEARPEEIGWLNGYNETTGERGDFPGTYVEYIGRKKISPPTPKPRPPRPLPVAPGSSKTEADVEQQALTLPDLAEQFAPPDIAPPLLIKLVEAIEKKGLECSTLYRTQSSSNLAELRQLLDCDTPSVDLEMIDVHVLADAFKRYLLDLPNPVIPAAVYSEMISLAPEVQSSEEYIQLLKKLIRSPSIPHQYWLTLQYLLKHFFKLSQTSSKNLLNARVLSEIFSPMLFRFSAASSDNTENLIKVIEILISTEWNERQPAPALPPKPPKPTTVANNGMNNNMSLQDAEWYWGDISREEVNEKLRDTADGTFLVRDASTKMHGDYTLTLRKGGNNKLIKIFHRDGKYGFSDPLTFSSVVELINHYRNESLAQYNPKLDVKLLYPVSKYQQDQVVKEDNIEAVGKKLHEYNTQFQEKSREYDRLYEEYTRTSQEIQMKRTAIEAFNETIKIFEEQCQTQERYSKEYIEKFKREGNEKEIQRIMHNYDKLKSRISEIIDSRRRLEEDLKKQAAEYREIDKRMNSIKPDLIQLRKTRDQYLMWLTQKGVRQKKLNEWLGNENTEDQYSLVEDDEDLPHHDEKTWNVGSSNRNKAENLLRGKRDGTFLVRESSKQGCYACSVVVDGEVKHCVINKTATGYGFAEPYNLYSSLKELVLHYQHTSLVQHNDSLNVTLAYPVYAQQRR
(§2) The inhibition of PI3Kβ, PI3Kα, PI3Kγ and PI3Kδ was evaluated in a Kinase Glo based enzyme activity assay using human recombinant enzymes. The assay measures depletion of ATP after incubation with enzyme, PIP2 and ATP plus compound. ATP at the end of the reaction is detected by addition of Kinase Glo reagent, in this the Ultra Glo™ luciferase (Promega) uses the ATP as a substrate to catalyze the mono-oxygenation of luciferin and the generation of light. A direct relationship exists between the luminescence measured with the Kinase-Glo Plus Reagent and the amount of ATP remaining in a completed kinase reaction and luminescence is inversely related to kinase activity. Twelve different compound concentrations were tested and raw data from the inhibition of PI3Kβ, PI3Kα, PI3Kγ and PI3Kδ was plotted versus inhibitor concentration.
(§3) Compounds in 100% DMSO were added to assay plates by acoustic dispensing. PI3β was added in a Tris buffer (50 mM Tris pH7.4, 0.05% CHAPS, 2.1 mM DTT, and 10 mM MgCl2) and allowed to preincubate with compound for 20 min prior to addition of substrate solution containing PIP2 and ATP. The enzyme reaction was stopped after 80 min by the addition of Kinase Glo detection solution. […] The final concentration of DMSO, ATP and PIP2 in the assay were, 1%, 8 μM, and 80 μM respectively.
(§4) IC50 values were calculated using a log curve fitting to a non-linear regression package, fitting raw data to inhibitor concentration.
On the technique in general: In Kinase-Glo more light means more ATP remaining.

Assay [3] has as its system phospho AKT (ser473) in MDA-MB-468 cells. The experiment in a line: Detection of phospho AKT (ser473) in MDA-MB-468 cells. It counts as cell-based. Conditions: Homo sapiens, Test (b), 2 hours incubation, approximate value, read-out: IC50 versus cellular phospho AKT (ser473) in MDA-MB-468 cells. Here is the method:
(b) Protocol for Detection of Phospho AKT (ser473) in MDA-MB-468 Cells
MDA-MB-468 cells (human breast adenocarcinoma ATCC HTB 132) are seeded into Greiner 384 well black flat-bottomed plates by automated cell culture robot (Selec T). Cells can also be maintained manually and seeded into plates using multidrop or Wellmate. Cells seeded at 1500 cell/well in 40 μl of DMEN containing 10% FCS and 1% glutamine. Cell plates are incubated for 18 hours in a 37° C. incubator.
Compounds are dosed onto cells using an Echo acoustic dispenser, which dispenses nl quantities of compound or DMSO. Compounds are dosed in a 12 point concentration range from 30 μM top dose, 28 compounds are dosed on one plate. There are 17 DMSO only positive control wells per plate, and 16 negative control well which have been dosed with a concentration of reference compound that will knockout the pAKT signal.
Plates are incubated at 37° C. for 2 hours, cells are the fixed by the addition of 10 μl of a 3.7% Formaldehyde solution in a fume cupboard using a Wellmate.
After 30 min to allow for fixation, the fixative and media are removed and the plates washed with Proclin PBS/A using Tecan PW384 plate washer in a fume cupboard. Wells are blocked and permeabilised with the addition of 40 μl of PBS containing 0.5% Tween20 and 1% marvel using a Wellmate and incubated for 60 min at room temperature.
Permeabilisation and blocking buffer removed using Tecan PW384 plate washer, then 20 μl primary antibody solution added using a Wellmate. The primary antibody solution is a 1:500 dilution of Rabbit anti-phospho AKT Ser 473 (Cell signalling technologies catalogue number #3787) in PBS/T containing 1% marvel (dried milk powder) and incubated overnight at 4° C.
Plates are washed using a Tecan PW384 plate washer three times with Phosphate Buffered Saline+0.05% (v/v) Polysorbate20 and Proclin300 (Supelco). 20 μl of secondary antibody solution is then added to each well using a Wellmate and incubated for 1 hour at Room Temp. The secondary antibody solution is a 1:1000 dilution of Alexa Fluor 488 anti-Rabbit (Molecular Probes cat no A11008) diluted in Phosphate Buffered Saline+0.05% (v/v) Polysorbate20 containing 1% marvel. Plates are washed three times as before then […] added to each well and plates sealed with black plate sealer.
The plates are read on an Acumen reader as soon as possible. Using this system IC50 values can be generated and quality of plates determined by control wells. Reference compounds are run each time to monitor assay performance.

The target of assay [4] is PI3Kδ (Homo sapiens, UniProt O00329). The experiment in a line: In vitro enzyme inhibition assay (Kinase Glo), PI3Kδ. The conditions noted are these: Test (a). It counts as biochemical. Here is the method: as §1, §2, §3, §4
Chain of PI3Kδ (O00329 whole entry): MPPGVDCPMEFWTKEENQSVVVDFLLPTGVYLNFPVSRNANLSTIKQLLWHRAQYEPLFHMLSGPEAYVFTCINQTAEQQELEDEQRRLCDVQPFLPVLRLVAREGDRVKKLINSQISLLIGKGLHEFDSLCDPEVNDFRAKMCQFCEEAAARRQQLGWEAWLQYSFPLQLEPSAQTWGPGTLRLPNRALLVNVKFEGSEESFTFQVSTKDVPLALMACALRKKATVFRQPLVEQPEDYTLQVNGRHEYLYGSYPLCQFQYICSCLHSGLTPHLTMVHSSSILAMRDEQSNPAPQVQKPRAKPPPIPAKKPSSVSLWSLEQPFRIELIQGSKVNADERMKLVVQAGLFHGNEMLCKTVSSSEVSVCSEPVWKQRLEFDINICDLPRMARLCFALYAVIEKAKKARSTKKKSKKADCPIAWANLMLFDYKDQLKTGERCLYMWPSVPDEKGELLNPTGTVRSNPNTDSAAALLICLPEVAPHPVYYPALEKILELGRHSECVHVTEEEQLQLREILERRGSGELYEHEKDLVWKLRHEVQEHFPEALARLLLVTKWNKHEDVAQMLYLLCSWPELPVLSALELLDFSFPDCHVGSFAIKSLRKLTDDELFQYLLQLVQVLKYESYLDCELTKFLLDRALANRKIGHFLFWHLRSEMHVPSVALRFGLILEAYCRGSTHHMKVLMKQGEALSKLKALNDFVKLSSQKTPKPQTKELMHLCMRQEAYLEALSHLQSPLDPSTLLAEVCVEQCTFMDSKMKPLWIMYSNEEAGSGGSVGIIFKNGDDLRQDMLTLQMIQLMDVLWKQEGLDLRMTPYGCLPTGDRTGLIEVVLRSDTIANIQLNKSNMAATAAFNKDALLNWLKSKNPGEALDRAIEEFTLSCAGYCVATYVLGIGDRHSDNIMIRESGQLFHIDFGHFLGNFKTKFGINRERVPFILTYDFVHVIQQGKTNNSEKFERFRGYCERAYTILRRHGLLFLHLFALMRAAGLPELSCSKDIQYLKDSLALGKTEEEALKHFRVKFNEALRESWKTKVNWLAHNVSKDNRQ
Chain of PI3Kδ (P27986 whole entry partner): as the sequence (P27986 whole entry partner) above
Assay [5] concerns phosphoinositide (PI) 3-kinase. The experiment in a line: Comparison of activity of enantiomers (PI 3-kinase inhibitory activity). It counts as biochemical. The conditions noted are these: (+) enantiomer of Example 1.03 compared with the other enantiomer. An excerpt:
The synthesis of optically active forms may be carried out by standard techniques of organic chemistry well known in the art, for example by synthesis from optically active starting materials or by resolution of a racemic form. Similarly, the above-mentioned activity may be evaluated using the standard laboratory techniques.
For the avoidance of doubt, the chiral centre in question is the carbon atom at the 2-position of the central pyrrolidine ring that is linked to the chromenone bicyclic ring.

[6] abbreviates: approximate value, read-out: IC50 versus PI3Kβ.
Setting [7] is: human recombinant enzyme, ATP 8 μM, PIP2 80 μM, Table A, read-out: PI3Kβ inhibition, IC50.
[8] abbreviates: approximate value, read-out: IC50 versus PI3Kδ.
Setting [9] is: human recombinant enzyme, Table A, read-out: PI3Kδ inhibition, IC50.

Molecules are shown by their SMILES. Where two headings read alike, the source gives them in different places.

As a reminder, the IC50 is the midpoint of a concentration-inhibition curve.

As for `O=C(c1cc([C@H]2CCCN2c2cc(F)cc(F)c2)c2oc(N3CCOCC3)cc(=O)c2c1)N1CCOCC1` [Example 1.03b, 8-[(2R)-1-(3,5-difluorophenyl)pyrrolidin-2-yl]-6-(morpholine-4-carbonyl)-2-morpholino-chromen-4-one], the half-inhibitory concentration (IC50) was about 7 nM in assay [1]; about 7 nM in assay [2] (setting [6]); 7 nM in assay [2] (setting [7]); about 1 nM in assay [3]; about 9 nM in assay [4] (setting [8]); 9 nM in assay [4] (setting [9]).

Regarding `C[C@@H]1CN(c2cc(=O)c3cc(C(=O)N(C)C)cc(C4CCCN4c4cccc(F)c4)c3o2)CCO1` (stereo partly drawn) [Example 3.03, 8-(1-(3-fluorophenyl)pyrrolidin-2-yl)-N,N-dimethyl-2-((R)-2-methylmorpholino)-4-oxo-4H-chromene-6-carboxamide], the IC50 in assay [2] (setting [6]) is about 10 nM; in assay [2] (setting [7]) it was 10 nM; in assay [3] it was about 1 nM; in assay [4] (setting [8]), about 7 nM; in assay [4] (setting [9]), 7 nM.

For `O=C(c1cc([C@H]2CCCN2c2cc(F)cc(F)c2)c2oc(N3CCOCC3)cc(=O)c2c1)N1CCC1` [Example 1.05, 6-(azetidine-1-carbonyl)-8-[(2R)-(1-(3,5-difluorophenyl)pyrrolidin-2-yl)]-2-morpholino-4H-chromen-4-one], the 50% inhibitory concentration (IC50) in assay [2] (setting [6]) was about 7 nM; in assay [2] (setting [7]), 7 nM; in assay [3] it was about 1 nM; in assay [4] (setting [8]), about 9 nM; in assay [4] (setting [9]), 9 nM.

As to `O=C(c1cc([C@H]2CCCN2c2cccc(F)c2)c2oc(N3CCOCC3)cc(=O)c2c1)N1CCC1` [Example 1.08, 6-(azetidine-1-carbonyl)-8-[(2R)-(1-(3-fluorophenyl)pyrrolidin-2-yl)]-2-morpholino-4H-chromen-4-one], the IC50 in assay [2] (setting [6]) was about 6 nM; in assay [2] (setting [7]), 6 nM; in assay [3] it was about 2 nM; in assay [4] (setting [8]), about 6 nM; in assay [4] (setting [9]), 6 nM.

As to `O=C(c1cc([C@@H]2CCCN2c2cc(F)cc(F)c2)c2oc(N3CCOCC3)cc(=O)c2c1)N1CCOCC1` [Example 1.03a, 8-[(2S)-1-(3,5-difluorophenyl)pyrrolidin-2-yl]-6-(morpholine-4-carbonyl)-2-morpholino-4H-chromen-4-one], in assay [5], the “activity relative to the other enantiomer” value is on record as “weaker activity”. Further, the half-inhibitory concentration (IC50) in assay [2] (setting [6]) was about 198 nM; in assay [3] it was about 27 nM; in assay [4] (setting [8]) it was about 282 nM.

As for `CN1CCN(C(=O)c2cc([C@H]3CCCN3c3cccc(F)c3)c3oc(N4CCOCC4)cc(=O)c3c2)CC1` [Example 1.10, 8-[(2R)-(1-(3-fluorophenyl)pyrrolidin-2-yl)]-6-(4-methylpiperazine-1-carbonyl)-2-morpholino-4H-chromen-4-one], the IC50 in assay [2] (setting [6]) was about 8 nM; in assay [2] (setting [7]) it was 8 nM; in assay [3] it was about 4 nM; in assay [4] (setting [8]), about 21 nM; in assay [4] (setting [9]) it was 21 nM.

(Values after patent publication US8530470B2, “Chromenone derivatives” (Astrazeneca AB, priority 2011, dated 2013).)
